Test results as given in patent US9474790B2, “Stable, protracted GLP-1/glucagon receptor co-agonists for medical use” (Novo Nordisk A/S, priority 2013, dated 2016).
Numbered stars: 1 amine (or outer) side, 2 acyl side, 3 side chain; on linkers, the order of the positions; unused ones are H or OH. Square brackets hold non-standard residues; d marks the D form. Side chains are listed from the residue outwards. Peptide text beside a SMILES is read from it. * marks the point of attachment. C18 diacid = O=C(O)CCCCCCCCCCCCCCCCC(=O)*; γGlu = O=C(O)[C@H](CCC(=O)[*:2])N[*:1]; Ac4c = NC1(C(=O)O)CCC1; AEEA = NCCOCCOCC(=O)O; Aib = CC(C)(N)C(=O)O

target: T1, human GLP-1 receptor (Homo sapiens, UniProt P43220); assay: GLP-1 receptor potency, CRE luciferase reporter gene assay in BHK cells; type: cell-based; settings: BHK cells expressing human GLP-1 receptor, read-out: EC50 GLP-1R
T1 construct: expressed in transfected cells; host or cells: BHK cells (parent BHKTS13), clone FCW467-12A/KZ10-1, with CRE luciferase
In short: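 BHK cells stably expressing human GLP-1 receptor with CRE-luciferase reporter, 5×10EE3 cells/well in phenol red-free DMEM with 10 mM Hepes, 2% ovalbumin, 0.2% Pluronic F-68. Compounds at final 1×10EE-6 to 1×10EE-13 M, 3 h at 37° C; steadylite luminescence; EC50 by four-parameter fit, in pM.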

T1 sequence (P43220 24-463): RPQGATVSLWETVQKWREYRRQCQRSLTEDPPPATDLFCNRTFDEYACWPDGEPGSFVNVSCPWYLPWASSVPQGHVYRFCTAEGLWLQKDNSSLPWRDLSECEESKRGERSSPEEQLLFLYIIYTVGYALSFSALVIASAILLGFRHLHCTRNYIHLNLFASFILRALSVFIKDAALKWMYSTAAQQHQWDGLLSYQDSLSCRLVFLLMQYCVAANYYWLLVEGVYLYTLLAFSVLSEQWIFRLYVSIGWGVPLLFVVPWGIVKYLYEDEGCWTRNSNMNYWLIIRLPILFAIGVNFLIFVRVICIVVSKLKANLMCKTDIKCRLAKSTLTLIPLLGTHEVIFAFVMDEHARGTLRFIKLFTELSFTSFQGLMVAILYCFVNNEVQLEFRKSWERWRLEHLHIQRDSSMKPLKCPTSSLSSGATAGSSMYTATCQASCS

| Compound | EC50 [pM] |
| --- | --- |
| CC(C)C[C@H](NC(=O)[C@H](Cc1ccc(O)cc1)NC(=O)[C@H](CCCCN)NC(=O)[C@H](CO)NC(=O)[C@H](CC(C)C)NC(=O)[C@H](CC(=O)O)NC(=O)[C@H](CO)NC(=O)[C@@H](NC(=O)[C@H](Cc1ccccc1)NC(=O)[C@@H](NC(=O)CNC(=O)[C@H](CCC(N)=O)NC(=O)C1(NC(=O)[C@@H](N)Cc2c[nH]cn2)CCC1)[C@@H](C)O)[C@@H](C)O)C(=O)N[C@@H](CCC(=O)O)C(=O)N[C@@H](CO)C(=O)N[C@@H](CCCNC(=N)N)C(=O)N[C@@H](CCCNC(=N)N)C(=O)N[C@@H](C)C(=O)N[C@@H](CCC(N)=O)C(=O)N[C@@H](CC(=O)O)C(=O)N[C@@H](Cc1ccccc1)C(=O)N[C@H](C(=O)N[C@@H](CCC(N)=O)C(=O)N[C@@H](Cc1c[nH]c2ccccc12)C(=O)N[C@@H](CC(C)C)C(=O)N[C@@H](CC(C)C)C(=O)N[C@@H](CCCCNC(=O)COCCOCCNC(=O)COCCOCCNC(=O)CC[C@H](NC(=O)CC[C@H](NC(=O)CC[C@H](NC(=O)CCCCCCCCCCCCCCCCC(=O)O)C(=O)O)C(=O)O)C(=O)O)C(=O)N[C@H](C(N)=O)[C@@H](C)O)C(C)C [Example 63, N^ε28-[2-[2-[2-[[2-[2-[2-[[(4S)-4-carboxy-4-[[(4S)-4-carboxy-4-[[(4S)-4-carboxy-4-(17-carboxyheptadecanoylamino)butanoyl]amino]butanoyl]amino]butanoyl]amino]ethoxy]ethoxy]acetyl]amino]ethoxy]ethoxy]acetyl]-[Acb2,Leu10,Glu15,Leu27,Lys28]-Glucagon amide] (H-H[Ac4c]QGTFTSDLSKYLESRRAQDFVQWLLK([AEEA-AEEA-γGlu-γGlu-γGlu-C18 diacid])T-NH2; N-terminus assumed) | 7 |
| CC(C)C[C@H](NC(=O)[C@H](Cc1ccc(O)cc1)NC(=O)[C@H](CCCCN)NC(=O)[C@H](CO)NC(=O)[C@H](CC(C)C)NC(=O)[C@H](CC(=O)O)NC(=O)[C@H](CO)NC(=O)[C@@H](NC(=O)[C@H](Cc1ccccc1)NC(=O)[C@@H](NC(=O)CNC(=O)[C@H](CCC(N)=O)NC(=O)C(C)(C)NC(=O)[C@@H](N)Cc1c[nH]cn1)[C@@H](C)O)[C@@H](C)O)C(=O)N[C@@H](CC(=O)O)C(=O)N[C@@H](C)C(=O)N[C@@H](CCCNC(=N)N)C(=O)N[C@@H](CCCNC(=N)N)C(=O)N[C@@H](C)C(=O)N[C@@H](CCCNC(=N)N)C(=O)N[C@@H](CC(=O)O)C(=O)N[C@@H](Cc1ccccc1)C(=O)N[C@H](C(=O)N[C@@H](CCC(N)=O)C(=O)N[C@@H](Cc1c[nH]c2ccccc12)C(=O)N[C@@H](CC(C)C)C(=O)N[C@@H](CC(C)C)C(=O)N[C@@H](CC(N)=O)C(=O)N[C@@H](CCCCNC(=O)CC[C@H](NC(=O)CC[C@H](NC(=O)COCCOCCNC(=O)COCCOCCNC(=O)CC[C@H](NC(=O)CCCCCCCCCCCCCCCCC(=O)O)C(=O)O)C(=O)O)C(=O)O)C(N)=O)C(C)C [Example 65] (H-H[Aib]QGTFTSDLSKYLDARRARDFVQWLLNK([γGlu-γGlu-AEEA-AEEA-γGlu-C18 diacid])-NH2; N-terminus assumed) | 6 |
| CC(C)C[C@H](NC(=O)[C@H](Cc1ccc(O)cc1)NC(=O)[C@H](CCCCN)NC(=O)[C@H](CO)NC(=O)[C@H](CC(C)C)NC(=O)[C@H](CC(=O)O)NC(=O)[C@H](CO)NC(=O)[C@@H](NC(=O)[C@H](Cc1ccccc1)NC(=O)[C@@H](NC(=O)CNC(=O)[C@H](CCC(N)=O)NC(=O)C(C)(C)NC(=O)[C@@H](N)Cc1c[nH]cn1)[C@@H](C)O)[C@@H](C)O)C(=O)N[C@@H](CC(=O)O)C(=O)N[C@@H](C)C(=O)N[C@@H](CCCNC(=N)N)C(=O)N[C@@H](CCCNC(=N)N)C(=O)N[C@@H](C)C(=O)N[C@@H](CCCNC(=N)N)C(=O)N[C@@H](CC(=O)O)C(=O)N[C@@H](Cc1ccccc1)C(=O)N[C@H](C(=O)N[C@@H](CCC(N)=O)C(=O)N[C@@H](Cc1c[nH]c2ccccc12)C(=O)N[C@@H](CC(C)C)C(=O)N[C@@H](CC(C)C)C(=O)N[C@@H](CO)C(=O)N[C@@H](CCCCNC(=O)CC[C@H](NC(=O)CC[C@H](NC(=O)COCCOCCNC(=O)COCCOCCNC(=O)CC[C@H](NC(=O)CCCCCCCCCCCCCCCCC(=O)O)C(=O)O)C(=O)O)C(=O)O)C(N)=O)C(C)C [Example 66, N^ε29-[(4S)-4-carboxy-4-[[(4S)-4-carboxy-4-[[2-[2-[2-[[2-[2-[2-[[(4S)-4-carboxy-4-(17-carboxyheptadecanoylamino)butanoyl]amino]ethoxy]ethoxy]acetyl]amino]ethoxy]ethoxy]acetyl]amino]butanoyl]amino]butanoyl]-[Aib2,Leu10,Ala16,Arg20,Leu27,Ser28,Lys29]-Glucagon amide] (H-H[Aib]QGTFTSDLSKYLDARRARDFVQWLLSK([γGlu-γGlu-AEEA-AEEA-γGlu-C18 diacid])-NH2; N-terminus assumed) | 5 |
| CC(C)C[C@H](NC(=O)[C@H](Cc1ccc(O)cc1)NC(=O)[C@H](CCCCN)NC(=O)[C@H](CO)NC(=O)[C@H](CC(C)C)NC(=O)[C@H](CC(=O)O)NC(=O)[C@H](CO)NC(=O)[C@@H](NC(=O)[C@H](Cc1ccccc1)NC(=O)[C@@H](NC(=O)CNC(=O)[C@H](CCC(N)=O)NC(=O)C(C)(C)NC(=O)[C@@H](N)Cc1c[nH]cn1)[C@@H](C)O)[C@@H](C)O)C(=O)N[C@@H](CCC(=O)O)C(=O)N[C@@H](CO)C(=O)N[C@@H](CCCNC(=N)N)C(=O)N[C@@H](CCCNC(=N)N)C(=O)N[C@@H](C)C(=O)N[C@@H](CCCNC(=N)N)C(=O)N[C@@H](CCC(=O)O)C(=O)N[C@@H](Cc1ccccc1)C(=O)N[C@H](C(=O)N[C@@H](CCC(N)=O)C(=O)N[C@@H](Cc1c[nH]c2ccccc12)C(=O)N[C@@H](CC(C)C)C(=O)N[C@@H](CC(C)C)C(=O)N[C@@H](CCCCNC(=O)CC[C@H](NC(=O)CC[C@H](NC(=O)[C@H](CO)NC(=O)[C@H](CCC(=O)O)NC(=O)[C@H](CO)NC(=O)CC[C@H](NC(=O)CC[C@H](NC(=O)CCCCCCCCCCCCCCCCC(=O)O)C(=O)O)C(=O)O)C(=O)O)C(=O)O)C(=O)N[C@H](C(N)=O)[C@@H](C)O)C(C)C [Example 67, N^ε28-[(4S)-4-carboxy-4-[[(4S)-4-carboxy-4-[[(2S)-2-[[(2S)-4-carboxy-2-[[(2S)-2-[[(4S)-4-carboxy-4-[[(4S)-4-carboxy-4-(17-carboxyheptadecanoylamino)butanoyl]amino]butanoyl]amino]-3-hydroxypropanoyl]amino]butanoyl]amino]-3-hydroxypropanoyl]amino]butanoyl]amino]butanoyl]-[Aib2,Leu10,Glu15,Arg20,Glu21,Leu27,Lys28]-Glucagon amide] (H-H[Aib]QGTFTSDLSKYLESRRAREFVQWLLK([γGlu-γGlu-Ser-Glu-Ser-γGlu-γGlu-C18 diacid])T-NH2; N-terminus assumed) | 4 |
